Results as given in patent US20070265261A1, “Dpp-IV Inhibitors” (priority 2004, published 2007).

target: T1, DPP-IV (Homo sapiens, UniProt P27487); test: Inhibition of DPP-IV peptidase activity, continuous fluorimetric assay (cleavage of Gly-Pro-AMC); assay type: biochemical
T1 construct: Soluble human DPP-IV lacking the transmembrane anchor (Gly31-Pro766); Pre-Pro-alpha-mating factor leader (secretion signal) (N, cleaved yes); made in house
Method: Inhibition of DPP-IV peptidase activity was monitored with a continuous fluorimetric assay. This assay is based on the cleavage of the substrate Gly-Pro-AMC (Bachem) by DPP-IV, releasing free AMC. The assay is carried out in 96-well microtiter plates. In a total volume of 100 μL, compounds are preincubated with […] DPP-IV employing a buffer containing 10 mM Hepes, 150 mM NaCl, 0.005% Tween 20 (pH 7.4). […] The final concentration of DMSO is 1%. The inhibitory potential of the compounds were determined.
Soluble human DPP-IV lacking the transmembrane anchor (Gly31-Pro766) was expressed in a recombinant YEAST-strain as Pre-Pro-alpha-mating fusion. The secreted product (rhuDPP-IV-Gly31-Pro766) was purified from fermentation broth (>90% purity).

T1 sequence (P27487 31-766): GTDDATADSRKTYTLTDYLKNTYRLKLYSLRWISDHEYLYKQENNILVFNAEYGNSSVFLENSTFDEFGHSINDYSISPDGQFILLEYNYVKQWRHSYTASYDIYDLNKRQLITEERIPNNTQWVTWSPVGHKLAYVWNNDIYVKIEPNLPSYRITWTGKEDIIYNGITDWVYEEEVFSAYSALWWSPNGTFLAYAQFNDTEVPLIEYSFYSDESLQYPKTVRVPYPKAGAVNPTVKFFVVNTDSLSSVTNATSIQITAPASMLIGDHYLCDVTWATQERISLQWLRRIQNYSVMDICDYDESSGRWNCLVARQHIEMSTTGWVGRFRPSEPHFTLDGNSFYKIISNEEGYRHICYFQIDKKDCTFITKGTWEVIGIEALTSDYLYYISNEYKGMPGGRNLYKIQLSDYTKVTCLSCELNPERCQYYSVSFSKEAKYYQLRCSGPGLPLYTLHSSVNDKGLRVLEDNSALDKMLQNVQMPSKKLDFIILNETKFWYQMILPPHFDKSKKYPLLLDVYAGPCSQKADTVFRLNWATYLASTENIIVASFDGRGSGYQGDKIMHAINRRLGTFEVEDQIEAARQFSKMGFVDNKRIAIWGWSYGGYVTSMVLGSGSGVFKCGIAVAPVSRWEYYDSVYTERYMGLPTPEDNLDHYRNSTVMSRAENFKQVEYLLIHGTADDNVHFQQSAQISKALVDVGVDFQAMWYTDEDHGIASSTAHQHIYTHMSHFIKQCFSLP

Row | SMILES | IC50 [µM]
1 | N[C@@H](Cc1cc(F)ccc1F)C1CCN(C(=O)c2cnccn2)CC1 (single isomer, unassigned) [Example 44] | 0.101 to 1
2 | N[C@@H](Cc1cc(F)ccc1F)C1CCN(C(=O)c2ccc(C(F)(F)F)nc2)CC1 (single isomer, unassigned) [Example 47] | 1 to 2
3 | N[C@@H](Cc1cc(F)ccc1F)C1CCN(C(=O)c2ccnc(C(F)(F)F)n2)CC1 (single isomer, unassigned) [Example 50] | 0.101 to 1
4 | N[C@@H](Cc1cc(F)ccc1F)C1CCN(C(=O)c2ccnn2C(F)F)CC1 (single isomer, unassigned) [Example 53] | 1 to 2
5 | N[C@@H](Cc1cc(F)c(F)cc1F)C1CCN(C(=O)c2ccnc(C(F)(F)F)n2)CC1 (single isomer, unassigned) [Example 65] | 1 to 2
6 | N[C@H](Cc1cccc(Cl)c1)C1CCNCC1 (stereo in doubt) [Example 7, 2-(3-Chloro-phenyl)-1-piperidin-4-yl-ethylamine] | 0.101 to 1
7 | CC(C)(C)OC(=O)N1CCC(C(N)Cc2cccc(Cl)c2)CC1 (stereo not shown) [Example 6, 4-[1-Amino-2-(3-chloro-phenyl)-ethyl]-piperidine-1-carboxylic acid tert.-butyl ester] | 0.101 to 1
8 | NC(Cc1cccc(Cl)c1)C1CCN(C(=O)C2CC2)CC1 (stereo not shown) [Example 9] | 0.101 to 1
9 | NC(Cc1cccc(Cl)c1)C1CCN(C(=O)CC2CC2)CC1 (stereo not shown) [Example 12] | 0.101 to 1
10 | NC(Cc1cccc(Cl)c1)C1CCN(C(=O)C2CCOC2)CC1 (stereo not shown) [Example 13] | 0.101 to 1
11 | NC(Cc1cccc(Cl)c1)C1CCN(C(=O)Cc2ccccc2)CC1 (stereo not shown) [Example 14] | 0.101 to 1
12 | NC(Cc1cccc(Cl)c1)C1CCN(C(=O)C2(C(F)(F)F)CC2)CC1 (stereo not shown) [Example 16] | 0.101 to 1
13 | NC(Cc1cccc(Cl)c1)C1CCN(C(=O)c2cn[nH]c2)CC1 (stereo not shown) [Example 18] | 0.101 to 1
14 | N[C@@H](Cc1cccc(Cl)c1)C1CCN(C(=O)c2ncccn2)CC1 [Example 21] | 1 to 2
15 | Cn1cnc(C(=O)N2CCC(C(N)Cc3cccc(Cl)c3)CC2)c1 (stereo not shown) [Example 29] | 0.101 to 1
16 | Cn1nc(C(F)(F)F)cc1C(=O)N1CCC(C(N)Cc2cccc(Cl)c2)CC1 (stereo not shown) [Example 31] | 0.101 to 1
17 | NC(Cc1cccc(Cl)c1)C1CCN(C(=O)c2cc(C(F)(F)F)n[nH]2)CC1 (stereo not shown) [Example 33] | 0.101 to 1
18 | N[C@@H](Cc1cc(F)ccc1F)C1CCN(S(=O)(=O)C2CC2)CC1 [Example 39] | 0.101 to 1
19 | N[C@@H](Cc1cc(F)ccc1F)C1CCN(C(=O)c2ncccn2)CC1 [Example 42] | 1 to 2

Row | SMILES | IC50 [µM]
20 | NC(Cc1cc(F)ccc1F)C1CCN(C(=O)c2ncccc2C(F)(F)F)CC1 (stereo not shown) [Example 57] | < 0.1
21 | NC(Cc1cc(F)ccc1F)C1CCN(C(=O)c2cc(C(F)(F)F)ccn2)CC1 (stereo not shown) [Example 58] | < 0.1
22 | NC(Cc1cc(F)ccc1F)C1CCN(C(=O)c2cccc(C(F)(F)F)n2)CC1 (stereo not shown) [Example 59] | < 0.1
23 | N[C@H](Cc1cc(F)ccc1F)C1CCN(C(=O)c2nccc(C(F)(F)F)n2)CC1 [Example 60] | < 0.1
24 | N[C@@H](Cc1cc(F)ccc1F)C1CCN(C(=O)c2nccc(C(F)(F)F)n2)CC1 [Example 61] | 0.101 to 1
25 | N[C@H](Cc1cc(F)c(F)cc1F)C1CCN(C(=O)c2ncccn2)CC1 [Example 63, {4-[(R)-1-amino-2-(2,4,5-trifluoro-phenyl)-ethyl]-piperidine-1yl}-pyrimidine-2-yl-methanone] | < 0.1
26 | N[C@H](Cc1cc(F)c(F)cc1F)C1CCN(C(=O)c2ccnc(C(F)(F)F)n2)CC1 [Example 64] | < 0.1
27 | NC(Cc1cc(F)c(F)cc1F)C1CCN(C(=O)c2ccnc(C(F)(F)F)n2)CC1 (stereo not shown) [Example 66] | < 0.1
28 | N[C@H](Cc1cc(F)c(F)cc1F)C1CCN(C(=O)c2ccc(C(F)(F)F)nc2)CC1 [Example 67] | < 0.1
29 | N[C@H](Cc1cc(F)cc(F)c1F)C1CCN(C(=O)c2ncccn2)CC1 [Example 68] | 0.101 to 1
30 | N[C@H](Cc1cc(F)cc(F)c1F)C1CCN(C(=O)c2ccnc(C(F)(F)F)n2)CC1 [Example 69] | < 0.1
31 | CC(C)(C)OC(=O)N1CCCC(C(N)Cc2cccc(Cl)c2)C1 (stereo not shown) [Example 70, 3-[1-Amino-2-(3-chloro-phenyl)-ethyl]-piperidine-1-carboxylic acid tert.-butyl ester] | 0.101 to 1
32 | NC(Cc1cccc(Cl)c1)C1CCCNC1 (stereo not shown) [Example 71, 2-(3-Chloro-phenyl)-1-piperidin-3-yl-ethylamine] | 1 to 2
33 | CS(=O)(=O)Nc1cccc(C(=O)N2CCC(C(N)Cc3cccc(Cl)c3)CC2)c1 (stereo not shown) [Example 72, N-(3-{4-[1-Amino-2-(3-chloro-phenyl)-ethyl]-piperidine-1-carbonyl}-phenyl)-methane-sulphonamide] | < 0.1
34 | NC(Cc1cccc(Cl)c1)C1CCN(c2ncccn2)CC1 (stereo not shown) [Example 73] | 0.101 to 1
35 | NC(Cc1cc(F)ccc1F)C1CCN(C(=O)N2CCC(F)(F)C2)CC1 (stereo not shown) [Example 74, {4-[1-Amino-2-(2 5-difluoro-phenyl)-ethyl]-piperidin-1-yl}-(3,3-difluoro-pyrrolidin-1-yl)-methanone] | < 0.1
36 | NC(Cc1cccc(Cl)c1)C1CCN(C(=O)N2CCOCC2)CC1 (stereo not shown) [Example 75] | < 0.1
37 | NC(Cc1cccc(Cl)c1)C1CCN(C(=O)N2CCCC2)CC1 (stereo not shown) [Example 76] | < 0.1

The remaining lines, values ahead:

Row | IC50 [µM] | SMILES
38 | < 0.1 | N[C@H](Cc1cccc(Cl)c1)C1CCN(C(=O)c2ncccn2)CC1 [Example 8, {4-[(R)-1-Amino-2-(3-chloro-phenyl)-ethyl]-piperidin-1-yl}-pyrimidin-2-yl-methanone]
39 | < 0.1 | NC(Cc1cccc(Cl)c1)C1CCN(C(=O)c2ccccc2)CC1 (stereo not shown) [Example 10]
40 | < 0.1 | NC(Cc1cccc(Cl)c1)C1CCN(C(=O)c2cccnc2)CC1 (stereo not shown) [Example 11]
41 | < 0.1 | NC(Cc1cccc(Cl)c1)C1CCN(C(=O)c2cnccn2)CC1 (stereo not shown) [Example 15]
42 | < 0.1 | NC(Cc1cccc(Cl)c1)C1CCN(C(=O)c2ccc(C(F)(F)F)nc2)CC1 (stereo not shown) [Example 17]
43 | < 0.1 | Cn1cc(C(=O)N2CCC(C(N)Cc3cccc(Cl)c3)CC2)c(C(F)(F)F)n1 (stereo not shown) [Example 19]
44 | < 0.1 | NC(Cc1cccc(Cl)c1)C1CCN(C(=O)c2ncccn2)CC1 (stereo not shown) [Example 20]
45 | < 0.1 | NC(Cc1cccc(Cl)c1)C1CCN(C(=O)c2ccnnc2)CC1 (stereo not shown) [Example 22]
46 | < 0.1 | NC(Cc1cccc(Cl)c1)C1CCN(C(=O)c2cncnc2)CC1 (stereo not shown) [Example 23]
47 | < 0.1 | Cc1cc(C(=O)N2CCC(C(N)Cc3cccc(Cl)c3)CC2)no1 (stereo not shown) [Example 24]
48 | < 0.1 | NC(Cc1cccc(Cl)c1)C1CCN(C(=O)c2ccnn2C(F)F)CC1 (stereo not shown) [Example 25]
49 | < 0.1 | NC(Cc1cccc(Cl)c1)C1CCN(C(=O)c2ccn(C(F)F)n2)CC1 (stereo not shown) [Example 26]
50 | < 0.1 | Cn1cncc1C(=O)N1CCC(C(N)Cc2cccc(Cl)c2)CC1 (stereo not shown) [Example 27]
51 | < 0.1 | Cn1ncc(C(=O)N2CCC(C(N)Cc3cccc(Cl)c3)CC2)c1C(F)(F)F (stereo not shown) [Example 28]
52 | < 0.1 | Cn1nc(C(=O)N2CCC(C(N)Cc3cccc(Cl)c3)CC2)cc1C(F)(F)F (stereo not shown) [Example 30]
53 | < 0.1 | NC(Cc1cccc(Cl)c1)C1CCN(C(=O)c2cnccc2C(F)(F)F)CC1 (stereo not shown) [Example 32]
54 | < 0.1 | NC(Cc1cccc(Cl)c1)C1CCN(S(=O)(=O)C2CC2)CC1 (stereo not shown) [Example 34, 2-(3-Chloro-phenyl)-1-(1-cyclopropanesulphonyl-piperidin-4-yl)-ethylamine]

Row | IC50 [µM] | SMILES
55 | < 0.1 | NC(Cc1cccc(Cl)c1)C1CCN(S(=O)(=O)c2ccccc2)CC1 (stereo not shown) [Example 35]
56 | < 0.1 | NC(Cc1cccc(Cl)c1)C1CCN(S(=O)(=O)Cc2ccccc2)CC1 (stereo not shown) [Example 36]
57 | < 0.1 | NC(Cc1cc(F)ccc1F)C1CCN(S(=O)(=O)C2CC2)CC1 (stereo not shown) [Example 37]
58 | < 0.1 | N[C@H](Cc1cc(F)ccc1F)C1CCN(S(=O)(=O)C2CC2)CC1 [Example 38]
59 | < 0.1 | CC(C)(C)OC(=O)N1CCC(C(N)Cc2cc(F)ccc2F)CC1 (stereo not shown) [Example 40, 4-[1-Amino-2-(2,5-difluoro-phenyl)-ethyl]-piperidine-1-carboxylic acid tert-butyl ester]
60 | < 0.1 | N[C@H](Cc1cc(F)ccc1F)C1CCN(C(=O)c2ncccn2)CC1 [Example 41]
61 | < 0.1 | N[C@H](Cc1cc(F)ccc1F)C1CCN(C(=O)c2cnccn2)CC1 [Example 43]
62 | < 0.1 | NC(Cc1cc(F)ccc1F)C1CCN(C(=O)c2cnccn2)CC1 (stereo not shown) [Example 45]
63 | < 0.1 | N[C@H](Cc1cc(F)ccc1F)C1CCN(C(=O)c2ccc(C(F)(F)F)nc2)CC1 [Example 46]
64 | < 0.1 | NC(Cc1cc(F)ccc1F)C1CCN(C(=O)c2ccc(C(F)(F)F)nc2)CC1 (stereo not shown) [Example 48]
65 | < 0.1 | N[C@H](Cc1cc(F)ccc1F)C1CCN(C(=O)c2ccnc(C(F)(F)F)n2)CC1 [Example 49]
66 | < 0.1 | NC(Cc1cc(F)ccc1F)C1CCN(C(=O)c2ccnc(C(F)(F)F)n2)CC1 (stereo not shown) [Example 51]
67 | < 0.1 | N[C@H](Cc1cc(F)ccc1F)C1CCN(C(=O)c2ccnn2C(F)F)CC1 [Example 52]
68 | < 0.1 | NC(Cc1cc(F)ccc1F)C1CCN(C(=O)c2cnc(C(F)(F)F)nc2)CC1 (stereo not shown) [Example 54]
69 | < 0.1 | NC(Cc1cc(F)ccc1F)C1CCN(C(=O)c2ncc(F)cc2F)CC1 (stereo not shown) [Example 55]
70 | < 0.1 | NC(Cc1cc(F)ccc1F)C1CCN(C(=O)c2ccn(C(F)F)n2)CC1 (stereo not shown) [Example 56]
